Measured values published in PMC5346723, “Delivery of a peptide-drug conjugate targeting the blood brain barrier improved the efficacy of paclitaxel against glioma” (Oncotarget, 2016).
Peptide text beside a SMILES is read from it. * marks the point of attachment. Biotin = O=C1N[C@H]2[C@H](CS[C@H]2CCCCC(=O)*)N1

Tests used:
U87 glioblastoma cells = test: MTT assay; type: cell-based, human; conditions: 1 × 10^5 cells/100 μl/well, 96-well, 37°C, sample concentration for the table not stated (0.1-2.5 mg/mL tested), absorbance 570 nm
Protocol: The cytotoxicity of ANG, ANG-TAT, ANG-PTX and ANG-TAT-PTX were determined using the 3-[4,5-dimethylthiazol-2-yl]-2,5-diphenyl tetrazolium bromide (MTT) assay. Human U87 glioblastoma cell (1×10^5 cells/100 μl per well) were cultured in 96-well plates at 37°C in 5% CO2. Aqueous solutions of the samples were dissolved in culture medium at final concentrations of 0.1, 0.5, 1, and 2.5 mg/mL. After incubation for 24 and 48 hours, the MTT solution (in 2 mg/mL phosphate-buffered saline) was added, the plates were incubated for 4 hours, and the cells were lysed with 50% N, N-dimethylformamide containing 20% sodium dodecyl sulfate (pH 4.5). Absorbance at 570 nm was measured for each well using a SpectraMax M5 (Molecular Devices, Sunnyvale, CA USA). The absorbance of control cells was taken as 100% viability, and the values of the treated cells were calculated as a percentage of the control.

[1] = system: U87 glioblastoma brain tumor tissue; test: Brain extraction of biotin labelled peptides after tail vein injection in mice with intracerebral U87 tumors; type: in vivo, CD-1 nude mice; conditions: 50 μg/kg, brain removed 15 min after injection, tumor implanted right hemisphere, biotin quantitative kit, P<0.05
Protocol: Biotin ANG and biotin ANG-TAT (50 μg/kg body weight) were injected into the tail vein of CD-1 nude mice carrying intracerebral implants of U87 glioblastoma cells. Fifteen minutes after injection the mice were killed, and the brains were surgically removed. The brain tissues were dissected and maintained in cold saline containing protease inhibitors until processing. To compare normal and tumor brain tissue, the right hemisphere (implanted hemisphere) was compared with the left hemisphere (non-implanted hemisphere). To extract biotin ANG and biotin ANG-TAT, tissues were mechanically homogenized in homogenization buffer (0.1 M Tris–HCl, pH 5.0, 50 mM sucrose, 0.003% Tween-80, and protease inhibitor cocktail) on ice. Acetonitrile (ACN) 100% was added to a final concentration of 65% (v/v). The mixture was stirred for 10 min in a cold room and then centrifuged at 3000 r.p.m. for 5 min. Acetonitrile supernatants were collected and dried in a rotative evaporator and finally freeze-dried. The concentration of biotin ANG and biotin ANG-TAT in the samples was determined using biotin quantitative kit from Elabsciences, Inc (Shanghai, China).
The U87 cell line was used to assess peptide uptake in an animal model of glioma. Cells suspension were prepared at a final concentration of 1×10^4 cells/ml in PBS and kept on ice until injection. […]

## CC(=O)O[C@H]1C(=O)[C@@]2(C)[C@H]([C@H](OC(=O)c3ccccc3)[C@]3(O)C[C@H](OC(=O)[C@H](O)[C@@H](NC(=O)c4ccccc4)c4ccccc4)C(C)=C1C3(C)C)[C@]1(OC(C)=O)CO[C@@H]1C[C@@H]2O [Free PTX, Paclitaxel]
U87 glioblastoma cells; 5% CO2, 24 h incubation
  MTT assay of ANG-TAT-PTX in tumor cells, 24h: 20.53±2.21
U87 glioblastoma cells; 5% CO2, 48 h incubation
  MTT assay of ANG-TAT-PTX in tumor cells, 48h: 42.36±2.35

## C[C@@H](O)[C@H](N)C(=O)N[C@@H](Cc1ccccc1)C(=O)N[C@@H](Cc1ccccc1)C(=O)N[C@@H](Cc1ccc(O)cc1)C(=O)NCC(=O)NCC(=O)N[C@@H](CO)C(=O)N[C@@H](CCCNC(=N)N)C(=O)NCC(=O)N[C@@H](CCCCN)C(=O)N[C@@H](CCCNC(=N)N)C(=O)N[C@@H](CC(N)=O)C(=O)N[C@@H](CC(N)=O)C(=O)N[C@@H](Cc1ccccc1)C(=O)N[C@@H](CCCCNC(=O)CCCC[C@@H]1SC[C@@H]2NC(=O)N[C@@H]21)C(=O)N[C@H](C(=O)N[C@@H](CCC(=O)O)C(=O)N[C@@H](CCC(=O)O)C(=O)N[C@@H](Cc1ccc(O)cc1)C(=O)NCC(=O)N[C@@H](CCCNC(=N)N)C(=O)N[C@@H](CCCCN)C(=O)N[C@@H](CCCCN)C(=O)N[C@@H](CCCNC(=N)N)C(=O)N[C@@H](CCCNC(=N)N)C(=O)N[C@@H](CCC(N)=O)C(=O)N[C@@H](CCCNC(=N)N)C(=O)N[C@@H](CCCNC(=N)N)C(=O)N[C@@H](CCCNC(=N)N)C(=O)N1CCC[C@H]1C(=O)N1CCC[C@H]1C(=O)N[C@@H](CCC(N)=O)C(=O)N[C@@H](CCC(N)=O)C(=O)O)[C@@H](C)O [biotin ANG-TAT] (H-TFFYGGSRGKRNNFK(Biotin)TEEYGRKKRRQRRRPPQQ-OH)
[1]
  Amount extracted from tumor tissue relative to biotin ANG: 1.8 fold
